Our source for the IC50 values is patent US8389764B2, “Urea and sulfamide derivatives as inhibitors of TAFIa” (Sanofi, priority 2006, dated 2013).

The experiment concerns the target T1, TAFIa (Homo sapiens, UniProt Q96IY4).
T1 construct: purchased American Diagnostica 874TAFIA
T1 sequence (Q96IY4 115-423): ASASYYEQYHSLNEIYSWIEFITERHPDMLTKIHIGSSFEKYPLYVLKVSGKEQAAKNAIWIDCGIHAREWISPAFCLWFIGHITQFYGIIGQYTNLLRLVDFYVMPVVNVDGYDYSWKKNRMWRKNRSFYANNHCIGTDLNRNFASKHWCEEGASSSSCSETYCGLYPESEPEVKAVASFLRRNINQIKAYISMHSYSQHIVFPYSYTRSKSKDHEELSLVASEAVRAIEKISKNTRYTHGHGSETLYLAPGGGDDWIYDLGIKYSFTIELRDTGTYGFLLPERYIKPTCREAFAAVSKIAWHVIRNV
In words: TAFIa inhibition, Actichrome plasma TAFI activity kit (American Diagnostica). The conditions noted are these: 15 min preincubation at room temperature, read at 420 nm, duplicate determination of serial dilutions. Type of experiment: biochemical. The method, then: The enzymic reaction was started by adding 10 μl of TAFIa developer (prediluted 1:2 with assay buffer).
The IC50 values were calculated from the averaged values (duplicate determination) of serial dilutions of the substance with the aid of the Softmax Pro software (version 4.8; Molecular Devices).

Numbered stars: 1 amine (or outer) side, 2 acyl side, 3 side chain; on linkers, the order of the positions; unused ones are H or OH. Square brackets hold non-standard residues; d marks the D form. Peptide text beside a SMILES is read from it. * marks the point of attachment. aIle = CC[C@@H](C)[C@H](N)C(=O)O; dCha = N[C@H](CC1CCCCC1)C(=O)O; Ac5c = NC1(C(=O)O)CCCC1; Cbz = O=C(OCc1ccccc1)*; Aib = CC(C)(N)C(=O)O; CO = O=C([*:1])[*:2]

`CC[C@@H](C)[C@H](NC(=O)[C@@H](CC1CCCCC1)NC(=O)N[C@@H](CCCCN)C(=O)O)C(=O)OC` [Example 57] ({Lys-CO}-[dCha]-[aIle]-OMe) registered an IC50 of 544 nM.
Then `CC(C)CCNC(=O)[C@@H](CCCCNC(=O)OCc1ccccc1)NC(=O)N[C@@H](CCCCN)C(=O)O` [Example 2], with 1420 nM; and `NCCCC[C@H](NC(=O)N[C@H](CC1CCCCC1)C(=O)NCC12CC3CC(CC(C3)C1)C2)C(=O)O` [Example 78], with 305 nM.
`NCCCC[C@H](NC(=O)N[C@H](CC1CCCCC1)C(=O)NCC(c1ccccc1)c1ccccc1)C(=O)O` [Example 28] came in with an IC50 of 118 nM.
As for `CCOC(=O)[C@@H]1CCCC[C@@H]1NC(=O)[C@@H](CCCCNC(=O)OCc1ccccc1)NC(=O)N[C@@H](CCCCN)C(=O)O` [Example 33], the IC50 was 190 nM.
As for `CC1(C)[C@@H]2CC[C@@]1(C)[C@@H](NC(=O)C(CC1CCCC1)NC(=O)N[C@@H](CCCCN)C(=O)O)C2` (stereo partly shown) [Example 111], the IC50 was found to be 4 nM.
On to `NCCCC[C@H](NC(=O)N[C@H](CC1CCCCC1)C(=O)N[C@@H]1CC1c1ccccc1)C(=O)O` (stereo partly shown) [Example 64], for which the half-inhibitory concentration (IC50) amounted to 757 nM.
Then `CC(C)[C@H](NC(=O)[C@@H](CCCCNC(=O)OCc1ccccc1)NC(=O)N[C@@H](CCCCN)C(=O)O)C(=O)NCc1ccc(Cl)cc1` [Example 129], with 608 nM; and `CC1(C)[C@@H]2CC[C@@]1(C)[C@@H](NC(=O)[C@@H](CC1CCCCC1)NC(=O)N[C@H](Cc1ccc(N)nc1)C(=O)O)C2` [Example 94], with 109000 nM; and `CC(C)[C@@H](NC(=O)N[C@@H](CCCCN)C(=O)O)C(=O)N[C@H]1C[C@H]2CC[C@]1(C)C2(C)C` [Example 97], with 462 nM.
Turning to `COC(=O)C(C)(C)NC(=O)[C@@H](CCCCNC(=O)OCc1ccccc1)NC(=O)N[C@@H](CCCCN)C(=O)O` [Example 25] ({Lys-CO}-[dK](Cbz)-[Aib]-OMe), the IC50 amounted to 463 nM.
Take `NCCCC[C@H](NC(=O)N[C@H](CC1CCCCC1)C(=O)NCc1ccc(F)cc1F)C(=O)O` [Example 11, (S)-6-Amino-2-{3-[(R)-2-cyclohexyl-1-(2,4-difluoro-benzylcarbamoyl)-ethyl]-ureido}-hexanoic acid]: the IC50 turned out to be 644 nM.
Then `CC(C)[C@H](NC(=O)[C@@H](CCCCNC(=O)OCc1ccccc1)NC(=O)N[C@@H](CCCCN)C(=O)O)C(=O)N[C@@H](C)c1ccc(Cl)cc1` [Example 119], with 1300 nM; and `CC(C)[C@H](NC(=O)[C@@H](CCCCNC(=O)OCc1ccccc1)NC(=O)N[C@@H](CCCCN)C(=O)O)C(=O)NCCCc1ccccc1` [Example 113], with 747 nM.
Then `CC1(C)C2CCC1(C)[C@@H](NC(=O)[C@@H](CC1CCCCC1)NC(=O)N[C@@H](CCCCN)C(=O)O)C2` (stereo partly shown) [Example 77], with 3 nM.
`CC[C@H](C)[C@H](NC(=O)[C@@H](CCCCNC(=O)OCc1ccccc1)NC(=O)N[C@@H](CCCCN)C(=O)O)C(=O)OC` [Example 37] yielded an IC50 of 537 nM.
Take `CC1(C)[C@@H]2CC[C@@]1(C)[C@@H](NC(=O)[C@@H](CC1CCCCC1)NC(=O)N[C@@H](Cc1ccc(N)nc1)C(=O)O)C2` [Example 93]: 1500 nM corresponded to half-maximal inhibition (IC50). Compared with the last compound, the IC50 is about 2.8-fold higher.
Under `CCOC(=O)[C@H](CC(C)C)NC(=O)[C@@H](CCCCNC(=O)OCc1ccccc1)NC(=O)N[C@@H](CCCCN)C(=O)O` [Example 32] ({Lys-CO}-[dK](Cbz)-Leu-OEt) stands 753 nM; under `CC(C)CNC(=O)[C@@H](NC(=O)[C@H](CC1CCCCC1)NS(=O)(=O)N[C@@H](CCCCN)C(=O)O)C(C)C` [Example 169], 770 nM; under `CC(C)[C@H](NC(=O)[C@@H](CCCCNC(=O)OCc1ccccc1)NC(=O)N[C@@H](CCCCN)C(=O)O)C(=O)N[C@@H]1C[C@H]1c1ccccc1` [Example 127], 693 nM.
`CC1CCCC(NC(=O)[C@@H](NC(=O)[C@@H](CCCCNC(=O)OCc2ccccc2)NC(=O)N[C@@H](CCCCN)C(=O)O)C(C)C)C1` (stereo partly shown) [Example 120] yielded an IC50 of 615 nM.
Then `CC1(C)[C@@H]2CC[C@@]1(C)[C@@H](NC(=O)[C@@H](CC1CCCCC1)NC(=O)N[C@@H](CS(=O)(=O)CCN)C(=O)O)C2` [Example 142b], with 6 nM; and `C[C@H]1CC[C@H](NC(=O)[C@@H](CC2CCCCC2)NC(=O)N[C@@H](CCCCN)C(=O)O)CC1` [Example 31], with 76 nM; and `CC(CNC(=O)[C@@H](CCCCNC(=O)OCc1ccccc1)NC(=O)N[C@@H](CCCCN)C(=O)O)c1ccccc1` (stereo partly shown) [Example 34], with 1080 nM.
Under `CCOC(=O)[C@@H](NC(=O)[C@@H](CCCCNC(=O)OCc1ccccc1)NC(=O)N[C@@H](CCCCN)C(=O)O)C(C)C` [Example 38] ({Lys-CO}-[dK](Cbz)-Val-OEt) stands 297 nM; under `CC1(C)[C@@H]2CC[C@@]1(C)[C@@H](NC(=O)[C@@H](CC1CCCCC1)NC(=O)N[C@@H](CCCN)C(=O)O)C2` [Example 124], 18 nM.
`CC(C)[C@H](NC(=O)[C@@H](CCCCNC(=O)OCc1ccccc1)NC(=O)N[C@@H](CCCCN)C(=O)O)C(=O)NC1C[C@@H]2CC[C@H]1C2` (stereo partly shown) [Example 115] returned an IC50 of 239 nM.
Under `C[C@@H]1C(CNC(=O)[C@@H](CC2CCCCC2)NC(=O)N[C@@H](CCCCN)C(=O)O)CC2C[C@@H]1C2(C)C` (stereo partly shown) [Example 84] stands 654 nM; under `CC1(C)[C@@H]2CC[C@@]1(C)[C@@H](NC(=O)[C@@H](CC1CCCCC1)NC(=O)N[C@@H](CSCCN)C(=O)O)C2` [Example 142a], 0.7 nM.
As for `CC1CCCC(NC(=O)[C@@H](CC2CCCCC2)NC(=O)N[C@@H](CCCCN)C(=O)O)C1` (stereo partly shown) [Example 41], it took 90 nM to reach half-maximal inhibition (IC50).
As to `CC(CNC(=O)[C@@H](CC1CCCCC1)NC(=O)N[C@@H](CCCCN)C(=O)O)c1ccccc1` (stereo partly shown) [Example 12], the IC50 is 1260 nM.
Under `CC(C)(C)C1CCC(NC(=O)[C@@H](CC2CCCCC2)NC(=O)N[C@@H](CCCCN)C(=O)O)CC1` (stereo partly shown) [Example 86] stands 60 nM; under `CC1CCCCC1NC(=O)[C@@H](CC1CCCCC1)NC(=O)N[C@@H](CCCCN)C(=O)O` (stereo partly shown) [Example 19], 353 nM.
For the compound `COC(=O)C1(NC(=O)[C@@H](CCCCNC(=O)OCc2ccccc2)NC(=O)N[C@@H](CCCCN)C(=O)O)CCCC1` [Example 39] ({Lys-CO}-[dK](Cbz)-[Ac5c]-OMe), the IC50 was 1140 nM.
Then `CCNC(=O)[C@@H](NC(=O)[C@@H](CC1CCCCC1)NC(=O)N[C@@H](CCCCN)C(=O)O)C(C)C` [Example 10] ({Lys-CO}-[dCha]-Val-NHEt), with 979 nM.
For `Nc1ccc(CC(NC(=O)N[C@H](CC2CCCCC2)C(=O)NC2CC3CCC2C3)C(=O)O)cn1` (stereo partly shown) [Example 88], the midpoint of inhibition, the IC50, lay at 393 nM. This IC50 is about 2.5-fold lower than that of the compound before.
Under `COC(=O)[C@@H](NC(=O)[C@@H](NC(=O)[C@H](Cc1ccccc1)NS(=O)(=O)N[C@@H](CCCCN)C(=O)O)C(C)C)C(C)C` [Example 143, (S)-6-Amino-2-(3-{(S)-1-[(S)-1-((S)-1-methoxycarbonyl-2-methyl-propylcarbamoyl)-2-methyl-propylcarbamoyl]-2-phenyl-ethyl}-sulfamidyl)-hexanoic acid] stands 9760 nM; under `Cc1cccc(CNC(=O)[C@@H](CC2CCCCC2)NC(=O)N[C@@H](CCCCN)C(=O)O)c1C` [Example 26], 487 nM; under `NCCCC[C@H](NC(=O)N[C@H](CC1CCCCC1)C(=O)NC1C2CC3CC(C2)CC1C3)C(=O)O` (stereo partly shown) [Example 74], 19 nM.
The compound `CCC(C)CNC(=O)[C@@H](CC1CCCCC1)NC(=O)N[C@@H](CCCCN)C(=O)O` (stereo partly shown) [Example 69] showed an IC50 of 1050 nM.
